Experimental findings from patent US6172065A, “Urea and thiourea derivatives of substituted quinoxaline 2,3-diones as glutamate receptor antagonists” (Warner-Lambert Company, priority 1998, dated 2001) are described below.

Experiment [1] addresses AMPA receptors. In words: AMPA receptor binding affinity (Honore et al. method). The note with it: Table 1, AMPA.
For experiment [2], the target named is kainate site (non-NMDA receptor). In words: Kainate site (non-NMDA receptor) binding affinity (London and Coyle method). To be noted: Table 1, KA (kainate).
In experiment [3] the target is T1, glycine site of the NMDA receptor (Rattus norvegicus, UniProt P35439).
T1 construct: from tissue
Description: Glycine site of the NMDA receptor binding affinity (Jones et al. method). To be noted: Table 1, GLY (glycine site of NMDA receptor).

Turning to `COc1ccc(NC(=O)N(C)Cc2c(C)c([N+](=O)[O-])cc3[nH]c(=O)c(=O)[nH]c23)cc1` [Compound 2, 3-(4-Methoxy-phenyl)-1-methyl-1-(6-methyl-7-nitro-2,3-dioxo-1,2,3,4-tetrahydro-quinoxalin-5-ylmethyl)-urea], the IC50 in experiment [1] was 170 nM; in experiment [3] it was 5 nM. Besides, the “IC50 KA” value in experiment [2] was determined as 1120 nM.
Take `Cc1ccc(NC(=O)N(C)Cc2c(C)c([N+](=O)[O-])cc3[nH]c(=O)c(=O)[nH]c23)c(C)c1` [Compound 4, 3-(2,4-Dimethyl-phenyl)-1-methyl-1-(6-methyl-7-nitro-2,3-dioxo-1,2,3,4-tetrahydro-quinoxalin-5-ylmethyl)-urea]: the results for the IC50 in experiment [1] and in experiment [3] were 3600 nM and 20 nM, respectively. For the same compound, the “IC50 KA” value in experiment [2] came to 6700 nM.
Take `Cc1c([N+](=O)[O-])cc2[nH]c(=O)c(=O)[nH]c2c1CN(C)C(=O)Nc1ccccc1` [Compound 1, 1-Methyl-1-(6-methyl-7-nitro-2,3-dioxo-1,2,3,4-tetrahydro-quinoxalin-5-ylmethyl)-3-phenyl-urea]: the IC50 stood at 130 nM in experiment [1] and 8 nM in experiment [3]. The “IC50 KA” value in experiment [2] is 820 nM.
In the same order, the values of `Cc1c([N+](=O)[O-])cc2[nH]c(=O)c(=O)[nH]c2c1CN(C)C(=O)Nc1ccccc1C(F)(F)F` [Compound 6, 1-Methyl-1-(6-methyl-7-nitro-2,3-dioxo-1,2,3,4-tetrahydro-quinoxalin-5-ylmethyl)-3-(2-trifluoromethyl-phenyl)-urea] are 2850 nM, 10 nM and 7500 nM.
For `CCOC(=O)c1ccc(NC(=O)N(C)Cc2c(C)c([N+](=O)[O-])cc3[nH]c(=O)c(=O)[nH]c23)cc1` [Compound 7, 4-(3-Methyl-3-(6-methyl-7-nitro-2,3-dioxo-1,2,3,4-tetrahydro-quinoxalin-5-ylmethyl)ureido)-benzoic acid ethyl ester] the same measures were 4110 nM, 10 nM and 18400 nM.
In the same order, the values of `COc1ccc(OC)c(NC(=O)N(C)Cc2c(C)c([N+](=O)[O-])cc3[nH]c(=O)c(=O)[nH]c23)c1` [Compound 5, 3-(2,5-Dimethoxy-phenyl)-1-methyl-1-(6-methyl-7-nitro-2,3-dioxo-1,2,3,4-tetrahydro-quinoxalin-5-ylmethyl)-urea] are 3000 nM, 10 nM and 9540 nM.
Consider `COc1ccc(NC(=S)N(C)Cc2c(C)c([N+](=O)[O-])cc3[nH]c(=O)c(=O)[nH]c23)cc1` [Compound 3, 3-(4-Methoxy-phenyl)-1-methyl-1-(6-methyl-7-nitro-2,3-dioxo-1,2,3,4-tetrahydro-quinoxalin-5-ylmethyl)-thiourea], for which the IC50 was 230 nM in experiment [1] and 40 nM in experiment [3]. Besides, the “IC50 KA” value in experiment [2] is 2540 nM.

One may read the IC50 as the point on the concentration scale where inhibition reaches its midpoint. A lower IC50 goes with greater potency in that assay.
